The text below walks through data of paper PMC11329505 (Communications Chemistry, 2024).

For one assay, the target named is T1, AGAL3 (Turicibacter bilis, UniProt A0A9Q9CI38).
T1 sequence (A0A9Q9CI38 1-743): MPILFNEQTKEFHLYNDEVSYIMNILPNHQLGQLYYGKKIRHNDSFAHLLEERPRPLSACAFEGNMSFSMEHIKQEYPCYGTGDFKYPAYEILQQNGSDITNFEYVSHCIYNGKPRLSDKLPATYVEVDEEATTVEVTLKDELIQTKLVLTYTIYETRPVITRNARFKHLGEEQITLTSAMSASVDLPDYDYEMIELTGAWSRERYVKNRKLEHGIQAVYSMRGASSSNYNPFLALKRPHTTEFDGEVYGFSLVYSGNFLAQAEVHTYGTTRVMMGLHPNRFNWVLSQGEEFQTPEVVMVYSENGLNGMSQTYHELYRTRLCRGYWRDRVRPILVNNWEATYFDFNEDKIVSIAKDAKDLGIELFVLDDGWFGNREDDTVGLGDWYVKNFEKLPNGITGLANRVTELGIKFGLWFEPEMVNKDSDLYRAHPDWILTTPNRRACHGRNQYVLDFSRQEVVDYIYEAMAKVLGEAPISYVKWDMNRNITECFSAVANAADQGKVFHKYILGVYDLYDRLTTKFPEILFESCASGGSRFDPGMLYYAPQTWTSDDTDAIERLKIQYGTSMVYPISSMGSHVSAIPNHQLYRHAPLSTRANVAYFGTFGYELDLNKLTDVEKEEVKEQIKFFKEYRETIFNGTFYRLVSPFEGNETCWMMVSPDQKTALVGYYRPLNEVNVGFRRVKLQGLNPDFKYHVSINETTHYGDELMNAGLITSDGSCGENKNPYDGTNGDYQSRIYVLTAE
Description: pNP-αGal colorimetric assay with additive. In kind it is biochemical. To be noted: 5 mM maltose; pNP-αGal substrate.

The next assay concerns the target T2, AGAL5 (Blautia pseudococcoides, UniProt A0A1C7IHX3).
T2 sequence (A0A1C7IHX3 1-763): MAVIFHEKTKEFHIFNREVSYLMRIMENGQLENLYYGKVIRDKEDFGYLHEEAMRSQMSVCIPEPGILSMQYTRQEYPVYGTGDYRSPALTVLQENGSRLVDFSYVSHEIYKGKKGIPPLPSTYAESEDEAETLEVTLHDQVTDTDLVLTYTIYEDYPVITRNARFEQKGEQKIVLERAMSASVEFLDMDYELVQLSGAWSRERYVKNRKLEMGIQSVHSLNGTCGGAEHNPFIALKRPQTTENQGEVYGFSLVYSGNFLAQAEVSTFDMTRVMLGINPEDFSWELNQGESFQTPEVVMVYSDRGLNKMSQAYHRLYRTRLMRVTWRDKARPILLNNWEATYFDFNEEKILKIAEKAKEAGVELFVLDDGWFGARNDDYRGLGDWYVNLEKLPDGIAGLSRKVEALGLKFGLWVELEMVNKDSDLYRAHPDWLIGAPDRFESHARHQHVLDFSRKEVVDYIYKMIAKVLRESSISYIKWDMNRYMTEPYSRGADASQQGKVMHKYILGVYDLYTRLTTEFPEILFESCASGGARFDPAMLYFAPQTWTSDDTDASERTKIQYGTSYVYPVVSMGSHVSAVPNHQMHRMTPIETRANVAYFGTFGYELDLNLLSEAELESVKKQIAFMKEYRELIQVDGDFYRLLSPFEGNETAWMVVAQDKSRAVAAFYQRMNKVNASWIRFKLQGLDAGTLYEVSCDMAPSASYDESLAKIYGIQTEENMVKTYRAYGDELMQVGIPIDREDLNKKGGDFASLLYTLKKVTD
Nature of the assay: pNP-αGal colorimetric assay with additive. In kind it is biochemical. The conditions noted are these: 5 mM maltose; pNP-αGal substrate.

For the compound `OC[C@H]1O[C@H](O[C@H]2[C@H](O)[C@@H](O)C(O)O[C@@H]2CO)[C@H](O)[C@@H](O)[C@@H]1O` (some centres unmarked) [maltose], the “inhibition at 5 mM” value against AGAL3 is “maltose had an inhibitory effect on AGAL3 and AGAL5”; against AGAL5, “maltose had an inhibitory effect on AGAL3 and AGAL5”.
